This assay concerns the target T1, Microtubule affinity regulatory kinase 4 (MARK4) (Homo sapiens, UniProt Q96L34).
T1 sequence (Q96L34 1-752): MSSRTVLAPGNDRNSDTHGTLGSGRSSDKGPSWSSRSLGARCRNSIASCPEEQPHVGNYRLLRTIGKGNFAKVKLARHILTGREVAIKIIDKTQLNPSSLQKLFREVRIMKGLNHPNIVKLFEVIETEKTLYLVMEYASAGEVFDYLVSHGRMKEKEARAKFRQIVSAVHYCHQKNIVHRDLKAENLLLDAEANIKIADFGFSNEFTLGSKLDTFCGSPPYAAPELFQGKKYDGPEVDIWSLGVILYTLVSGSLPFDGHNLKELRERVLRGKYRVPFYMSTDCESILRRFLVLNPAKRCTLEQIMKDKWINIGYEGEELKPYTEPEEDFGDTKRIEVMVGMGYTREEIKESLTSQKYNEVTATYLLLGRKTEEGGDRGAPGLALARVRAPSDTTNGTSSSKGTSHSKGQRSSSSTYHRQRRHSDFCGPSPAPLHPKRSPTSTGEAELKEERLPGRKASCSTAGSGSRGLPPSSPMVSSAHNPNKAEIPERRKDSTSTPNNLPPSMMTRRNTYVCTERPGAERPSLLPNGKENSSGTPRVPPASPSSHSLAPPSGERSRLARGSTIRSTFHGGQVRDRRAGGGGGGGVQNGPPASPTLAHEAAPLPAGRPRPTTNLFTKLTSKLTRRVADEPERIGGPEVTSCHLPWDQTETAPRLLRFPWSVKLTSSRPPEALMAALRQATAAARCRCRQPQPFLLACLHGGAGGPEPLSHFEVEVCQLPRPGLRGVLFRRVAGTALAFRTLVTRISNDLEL
The assay is described as follows: malachite green ATPase. It counts as biochemical.

By IC50 is commonly meant the concentration needed to halve the response being measured. Turning to `OC[C@H]1O[C@@H](c2ccc(Cl)c(Cc3ccc(O[C@H]4CCOC4)cc3)c2)[C@H](O)[C@@H](O)[C@@H]1O` [empagliflozin], half-maximal inhibition (IC50) was put at 7.1 µM.

As for `CC#CCn1c(N2CCC[C@@H](N)C2)nc2c1c(=O)n(Cc1nc(C)c3ccccc3n1)c(=O)n2C` [linagliptin], the IC50 was found to be 7.63 µM.

These data come from publication PMC9948186 (ACS Omega, 2023).
